Here are results for one compound from publication PMC3635830 (Biochemistry, 2013).

The experiment deals with tryptophan 2-monooxygenase (TMO) (Pseudomonas savastanoi, UniProt P06617). Nature of the experiment: X-ray crystal structure, […] Å. To be noted: FAD-binding domain; IAM also bound.
Sequence of tryptophan 2-monooxygenase (TMO) (P06617 whole entry, the tested form may be a part): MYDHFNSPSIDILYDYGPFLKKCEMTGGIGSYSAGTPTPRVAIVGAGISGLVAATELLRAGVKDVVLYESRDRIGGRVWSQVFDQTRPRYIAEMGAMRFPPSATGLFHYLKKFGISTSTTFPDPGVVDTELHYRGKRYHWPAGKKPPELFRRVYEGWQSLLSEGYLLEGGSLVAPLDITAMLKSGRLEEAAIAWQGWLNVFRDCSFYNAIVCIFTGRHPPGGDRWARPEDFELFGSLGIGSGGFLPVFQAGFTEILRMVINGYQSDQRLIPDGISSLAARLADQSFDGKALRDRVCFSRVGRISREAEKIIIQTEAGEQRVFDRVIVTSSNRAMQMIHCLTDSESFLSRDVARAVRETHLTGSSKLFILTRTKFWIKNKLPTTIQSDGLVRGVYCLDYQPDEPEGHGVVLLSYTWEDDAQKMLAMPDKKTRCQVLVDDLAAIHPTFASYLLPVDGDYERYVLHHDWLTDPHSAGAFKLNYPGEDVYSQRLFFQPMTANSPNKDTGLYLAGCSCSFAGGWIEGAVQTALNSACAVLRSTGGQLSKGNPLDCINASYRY

Take `Cc1cc2nc3c(=O)[nH]c(=O)nc-3n(C[C@H](O)[C@H](O)[C@H](O)COP(=O)(O)OP(=O)(O)OC[C@H]3O[C@@H](n4cnc5c(N)ncnc54)[C@H](O)[C@@H]3O)c2cc1C` [FAD]: the “X-ray crystal structure, 1.95 Å” value was “The FAD cofactor and the bound indole-3-acetamide occupy a large internal cavity”.
